This is an account of results in patent US8592581B2, “Trisubstituted purine derivatives” (Cyclacel Limited, priority 2007, dated 2013).

The term half-life denotes how long it takes for the measured level to halve. A word on the IC50: it is the point on the concentration scale where inhibition reaches its midpoint.

Series [1] concerns the target T1, CYP2D6 (Homo sapiens (Human), UniProt P10635). Nature of the series: Cytochrome P450 substrate identification (Bactosomes) CYP2D6. It counts as in vitro ADME. Particulars: pH 7.4, 5 μM test compound, up to 45 min, read-out: half life in the presence of CYP2D6. As to the method:
(§1) cDNA expressed human CYP450 enzyme preparations co-expressed with human NADPH cytochrome P450 reductase (Bactosomes™) were supplied by Cypex Ltd. Bactosomes™ (final P450 concentration CYP1A2 100 pmol/mL, CYP2C8 50 pmol/mL, CYP2C9 25 pmol/mL, CYP2C19 100 pmol/mL, CYP2D6 50 pmol/mL and CYP3A4 25 pmol/mL), 0.1M phosphate buffer pH7.4 and test compound (final substrate concentration=5 μM; final DMSO concentration=0.25%) were pre-incubated at 37° C. prior to the addition of NADPH (final concentration=1 mM) to initiate the reaction. Incubations were also performed using control bactosomes (no P450 enzymes present) to reveal any non-enzymatic degradation. The final incubation volume was 25 μL. Compounds known to be metabolised specifically by each CYP450 isoform were used as control compounds.
(§2) Each compound was incubated singly for 0, 5, 15, 30 and 45 min with each CYP isoform. The reactions were stopped by the addition of 50 μL methanol containing internal standard at the appropriate time points. The incubation plates were centrifuged at 2500 rpm for 20 min at 4° C. to precipitate the protein. Following protein precipitation, the sample supernatants were combined in cassettes of up to four compounds and analysed using generic LC-MS/MS conditions.
(§3) The In peak area ratio (which has been corrected for any loss in the incubations with the control bactosomes) was plotted against time and the gradient of the line determined.
(§4) The elimination rate constant (k)=(−gradient)

In another series the test system is NCI-H929. Put plainly: Alamar blue cytotoxicity assay NCI-H929. The class given is cell-based. Particulars: Homo sapiens, 72 hours, read-out: cellular cytotoxicity IC50 NCI-H929. On the procedure: (§5) In order to determine the cellular potency of the compounds, the cytotoxicity of each compound was determined against a range of cell lines. Standard cytotoxicity methods were performed as follows: cells were seeded in 96-well plates appropriately for their doubling time (2-5000 cells per well) in RPMI or DMEM media containing 10% FCS and incubated overnight at 37° C., 5% CO2. The media was removed and 100 μl fresh media containing increasing concentrations of appropriate compound was added and the cells incubated for 72 hours at 37° C., 5% CO2. A 10% stock of alamar blue (Roche, Lewes, United Kingdom) was prepared in medium and 100 μl added to the cells which were incubated for 2 hours. Absorbance was measured on the Wallac Victor 2 1420 multi-label counter at 544-595 nm.

In series [2] the target is T1, CYP2D6. Nature of the series: CYP2D6 inhibition, human liver microsomes, dextromethorphan. The class given is in vitro ADME. On the procedure:
Six test compound concentrations (0.05, 0.25, 0.5, 2.5, 5, 25 μM in DMSO; final DMSO concentration=0.25%) were incubated with human liver microsomes (0.5 mg/mL) and NADPH (1 mM) in the presence of the probe substrate dextromethorphan (5 μM) for 30 min at 37° C. The selective CYP2D6 inhibitor, quinidine, was screened alongside the test compounds as a positive control.
For the CYP1A incubations, the reactions were terminated by the addition of methanol, and the formation of the metabolite, resorufin, was monitored by fluorescence (excitation wavelength=535 nm, emission wavelength=595 nm). For the CYP2C9, CYP2C19, CYP2D6, and CYP3A4 incubations, the reactions were terminated by the addition of methanol containing internal standard. The samples were then centrifuged, and the supernatants were combined, for the simultaneous analysis of 4-hydroxytolbutamide, 4-hydroxymephenyloin, dextrorphan, and 1-hydroxymidazolam plus internal standard by LC-MS/MS using generic LC-MS/MS conditions. Formic acid in deionised water (final concentration=0.1%) was added to the final sample prior to analysis.

A further series concerns the target CYP3A4 (Homo sapiens (Human), UniProt P08684). Put plainly: Cytochrome P450 substrate identification (Bactosomes) CYP3A4. The class given is in vitro ADME. As to the method: as §1, §2, §3, §4
Another series concerns A549. Nature of the series: Alamar blue cytotoxicity assay A549. The class given is cell-based. Particulars: Homo sapiens, 72 hours, read-out: cellular cytotoxicity IC50 A549. As to the method:
as §5
In general terms: Resazurin is reduced to fluorescent resorufin, in cell work by metabolically active cells.

The next series concerns Mcl-1. Nature of the series: Mcl-1 downregulation in H460 cells by Western blotting. It counts as cell-based. On the procedure: The media was removed and the adherent cells washed with 5 ml PBS. […] Proteins were transferred to nitrocellulose membranes (Schleicher & Schuell, Dassel, Germany) using wet electrophoretic transfer. Membranes were stained with Ponceau S to confirm equal loading before blocking in 5% nonfat milk in PBS with 0.05% Tween 20 (PBSTM) for 2 hours. Membranes were incubated overnight at 4° C. with primary antibody (rabbit polyclonal antibody to Mcl-1, Santa Cruz), diluted 1:1000 in PBSTM. Membranes were washed 2×5 minute followed by 2×10 minute in PBS and 0.05% Tween 20 (PBST) and incubated for 1 hour in PBSTM containing horseradish peroxidase-conjugated secondary antibody. Membranes were washed as before and incubated with enhanced chemiluminescence solution (Amersham) and exposed to X-ray film (Amersham).
In a second experiment the effect of additional compounds on Mcl-1 levels was investigated.
In general terms: Immunoblotting shows a protein as a band on a membrane.

CYP3A4, sequence (P08684 whole entry): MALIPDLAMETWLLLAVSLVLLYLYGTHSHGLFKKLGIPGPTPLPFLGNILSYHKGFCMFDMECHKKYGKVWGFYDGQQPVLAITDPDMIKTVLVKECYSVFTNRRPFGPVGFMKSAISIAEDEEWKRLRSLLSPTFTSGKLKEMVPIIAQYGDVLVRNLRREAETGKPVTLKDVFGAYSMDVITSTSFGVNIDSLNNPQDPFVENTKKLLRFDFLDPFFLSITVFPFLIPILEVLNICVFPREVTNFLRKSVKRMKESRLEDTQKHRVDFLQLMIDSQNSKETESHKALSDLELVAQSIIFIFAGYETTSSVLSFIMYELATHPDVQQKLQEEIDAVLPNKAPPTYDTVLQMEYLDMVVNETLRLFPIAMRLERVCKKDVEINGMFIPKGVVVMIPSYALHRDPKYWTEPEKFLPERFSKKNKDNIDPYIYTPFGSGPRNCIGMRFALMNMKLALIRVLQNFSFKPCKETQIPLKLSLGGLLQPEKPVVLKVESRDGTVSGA
T1 sequence (P10635 whole entry): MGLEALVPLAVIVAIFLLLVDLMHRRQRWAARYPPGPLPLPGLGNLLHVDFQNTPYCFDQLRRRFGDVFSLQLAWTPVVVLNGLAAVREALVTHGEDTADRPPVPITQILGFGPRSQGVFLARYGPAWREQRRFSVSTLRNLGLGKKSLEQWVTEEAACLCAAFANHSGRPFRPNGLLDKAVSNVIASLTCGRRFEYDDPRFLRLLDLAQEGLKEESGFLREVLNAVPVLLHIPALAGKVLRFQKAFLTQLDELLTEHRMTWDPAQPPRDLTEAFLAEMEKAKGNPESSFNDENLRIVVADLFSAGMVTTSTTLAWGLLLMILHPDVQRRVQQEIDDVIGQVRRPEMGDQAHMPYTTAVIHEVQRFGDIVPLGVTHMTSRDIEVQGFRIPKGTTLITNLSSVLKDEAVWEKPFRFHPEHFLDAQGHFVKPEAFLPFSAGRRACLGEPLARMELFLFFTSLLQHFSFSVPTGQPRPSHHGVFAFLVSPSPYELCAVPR

`CC[C@H](Nc1nc(NCc2cnc(C)cc2C)c2ncn(C(C)C)c2n1)[C@@H](C)O` [Compound [1]]: the half-life at 5 μM on CYP2D6 [1] is > 45 min; on CYP3A4 (human, pH 7.4, Bactosomes, 5 μM test compound, up to 45 min, read-out: half life in the presence of CYP3A4), > 45 min. Besides, the IC50 with NCI-H929 is 350 nM; against CYP2D6 [2], > 25 µM; with A549 it was 160 nM. Further, on CYP3A4 (Bactosomes system), the “substrate of CYP3A4 (in words)” value is “neither a substrate of nor inhibitor of CYP3A4”. In addition, the “downregulating the levels of Mcl-1 (in words)” value in the series on Mcl-1 (H460 cells, 0.5, 1.5, 4.5 and 13.5 μM, 5 hrs) was “most effective compound from this group”. In addition, the “concentration at which significant effects on Mcl-1 levels are observed” value in the series with Mcl-1 (H460 cells, 24 hr) amounted to 1.5 µM.
